Data taken from publication PMC11053489 (Viruses, 2024).
Like-named read-outs stand apart in the source and are kept apart here.

Tests used:
[1] = test system: SARS-CoV-2 (hCoV-19/USA-WA1/2020) in Vero CCL-81 cells; assay: microbe, parasite or virus in culture; type: cell-based; settings: for anti-SARS-CoV-2 activity (in words), concentrations up to 100 μM: Vero CCL-81 cells
[2] = 10 mg/kg (in cats); cited from earlier work
[3] = test system: Vero CCL-81 cells
[4] = following an IV infusion of remdesivir over 2 h, in vivo; cited from earlier work
[5] = cynomolgus monkey, in vivo; cited from earlier work
[6] = test system: SARS-CoV-2 (hCoV-19/USA-WA1/2020) in Caco-2 cells; settings: Caco-2
[7] = test system: SARS-CoV-2 (hCoV-19/USA-WA1/2020) in Caco-2 cells; assay: microbe, parasite or virus in culture; settings: Severe acute respiratory syndrome coronavirus 2, Caco-2, 72 h; for EC50: read-out: Caco-2 SARS-CoV-2 EC50; for EC90: read-out: Caco-2 SARS-CoV-2 EC90
[8] = in vitro; settings: human
[9] = in vitro; settings: human, Caco-2
[10] = remdesivir following IV infusion; cited from earlier work
[11] = cited from earlier work
[12] = in vitro; settings: African green monkey
[13] = in vitro; settings: human; remark: listed apart in the source
[14] = test system: SARS-CoV-2 (hCoV-19/USA-WA1/2020) in Calu-3 cells; assay: microbe, parasite or virus in culture; type: cell-based; settings: for EC50: read-out: Calu-3 SARS-CoV-2 EC50; for EC90: read-out: Calu-3 SARS-CoV-2 EC90
[15] = in vitro; settings: human; remark: listed apart in the source
[16] = in vitro; settings: human; remark: listed apart in the source
[17] = dog, in vivo; cited from earlier work
[18] = monkey, in vivo, po; cited from earlier work
[19] = human, in vivo
[20] = test system: Vero E6 cells; settings: read-out: CC50 in Vero E6 cells; cited from earlier work
[21] = test system: CCRF-CEM cells; settings: human
[22] = test system: SARS-CoV-2 in Vero E6 cells; settings: read-out: EC50, SARS-CoV-2 infectivity in Vero E6 cells; cited from earlier work
[23] = 20 mg/kg, once (dog or cat); Cmax × Fun
[24] = rats; cited from earlier work
[25] = primary hepatocytes; cited from earlier work
[26] = human astrocytes and hBTEC; cited from earlier work
[27] = test system: SARS-CoV-2 in Vero cells; settings: read-out: EC50, virus replication in Vero cells; cited from earlier work
[28] = mice and rats; cited from earlier work
[29] = test system: Vero CCL-81 cells; assay: MTS cytotoxicity assay, Vero CCL-81 cells; settings: up to 100 μM
[30] = cited from earlier work; remark: listed apart in the source
[31] = in vivo; cited from earlier work
[32] = test system: COVID-19 / SARS-CoV-2 infection; settings: COVID-OUT, cited from earlier work
[33] = Severe acute respiratory syndrome coronavirus 2, Calu-3, MOI 0.01, 72 h, 2% FBS
[34] = Severe acute respiratory syndrome coronavirus 2, Calu-3, 72 h

SMILES: CC(C)C[C@H](NC(=O)OCc1ccccc1)C(=O)N[C@@H](CC1CCNC1=O)C(O)S(=O)(=O)O (stereo partly drawn) [GC376]
- EC50 ([1]; read-out: Vero CCL-81 Cells EC50): 0.2 µM
- EC90 ([1]; read-out: Vero CCL-81 Cells EC90): 0.6 µM
- Cmax [2]: 1700 nM
- CC50 [3]: > 100 µM

SMILES: N#C[C@@]1(c2ccc3c(N)ncnn23)O[C@H](COP(=O)(O)OP(=O)(O)OP(=O)(O)O)[C@@H](O)[C@H]1O [GS-441524-TP]
- t1/2 of GS-441524-TP in human blood mononuclear cells [4]: 36 to 43 h

SMILES: N#C[C@@]1(c2ccc3c(N)ncnn23)O[C@H](CO)[C@@H](O)[C@H]1O [GS-441524]
- oral bioavailability [5]: about 3%
- Caco-2 Unbound Cmax/EC50 [6]: 30
- EC50 [7]: 0.08 µM
- EC90 [7]: 1.4 µM
- CC50 at 5 days [8]: > 100 µM
- CC50 at 3 days [9]: > 100 µM
- plasma t1/2 [10]: 6 to 7 h
- Fun (unbound fraction of drug in plasma) ([11]; plasma): 0.79
- CC50 at 3 days [12]: > 100 µM
- EC50 ([1]; Severe acute respiratory syndrome coronavirus 2, Table 1 drugs, MOI 0.1, 48 h, 2% FBS, read-out: Vero CCL-81 SARS-CoV-2 EC50): 0.8 µM
- EC90 ([1]; Severe acute respiratory syndrome coronavirus 2, Table 1 drugs, MOI 0.1, 48 h, 2% FBS, read-out: Vero CCL-81 SARS-CoV-2 EC90): 1.4 µM
- CC50 at 4 days [13]: > 100 µM
- EC50 [14, 33]: 0.3 µM
- EC90 [14, 33]: 2.34 µM
- CC50 at 3 days [15]: > 100 µM
- CC50 at 4 days [16]: > 100 µM
- oral bioavailability [17]: ~89%
- oral bioavailability [18]: < 10%
- Cmax (μM) {unbound} [19]: 2.41 µM

SMILES: C=CCc1ccc(O)c(-c2ccc(O)c(CC=C)c2)c1 [Honokiol]
- CC50 [20]: 54 µM
- EC50 [7]: 9.6 µM
- EC90 [7]: 80.4 µM
- CC50 [9]: 18.4 µM
- Fun (unbound fraction of drug in plasma) ([11]; Table 1, ref column Refs of Table 1): 0.36
- CC50 [12]: 40.4 µM
- EC50 ([1]; Severe acute respiratory syndrome coronavirus 2, 48 h, read-out: Vero CCL-81 SARS-CoV-2 EC50): 20.1 µM
- EC90 ([1]; Severe acute respiratory syndrome coronavirus 2, 48 h, read-out: Vero CCL-81 SARS-CoV-2 EC90): 84 µM
- CC50 ([13]; CEM CC50, 4 days): 28.6 µM
- CC50 ([13]; CEM CC50 {Unbound}): 26.7 µM
- EC50 [14, 34]: 69.2 µM
- EC90 [14, 34]: 94 µM
- CEM CC50 {Unbound} [21]: 28.6 {26.8} μM
- EC50 [22]: 13 µM

SMILES: Cc1cc(C2=NO[C@@](c3cc(Cl)c(Cl)c(Cl)c3)(C(F)(F)F)C2)sc1C(=O)NCC(=O)NCC(F)(F)F [Lotilaner]
- Cmax (μM) {unbound} [23]: 0.007 µM
- CC50 [12]: 44.3 µM
- EC50 ([1]; Severe acute respiratory syndrome coronavirus 2, 48 h, read-out: Vero CCL-81 Cells EC50): 1.9 µM
- EC90 ([1]; Severe acute respiratory syndrome coronavirus 2, 48 h, read-out: Vero CCL-81 Cells EC90): 4.9 µM

SMILES: C=CCc1ccc(O)c(-c2cc(CC=C)ccc2O)c1 [Magnolol]
- oral bioavailability [24]: 4%

SMILES: O=c1nc(NO)ccn1[C@@H]1O[C@H](COP(=O)(O)OP(=O)(O)OP(=O)(O)O)[C@@H](O)[C@H]1O [NTP of NHC]
- cellular t1/2 [25]: 0.4 to 1.1 h
- cellular t1/2 [26]: 4 to 5 h

SMILES: CC(C)(Oc1ccc(C(=O)c2ccc(Cl)cc2)cc1)C(=O)O [fenofibric acid]
- EC50 [27]: 7 µM

SMILES: c1coc(CNc2ncnc3[nH]cnc23)c1 [kinetin, N^6-furfurylaminopurine]
- oral bioavailability [28]: 50%
- antiviral activity in Vero CCL-81 cells (in words) ([1]; NAs and nucleoside-base precursors, evaluated up to 20 μM): lack of antiviral activity
- anti-SARS-CoV-2 activity (in words), concentrations up to 100 μM [1]: did not inhibit SARS-CoV-2
- cytotoxicity (in words), up to 100 μM [29]: not cytotoxic
- bound to plasma proteins [30]: ~ 80%

SMILES: CN(C)C(=N)N=C(N)N [metformin]
- plasma Cmax (bound + unbound) [31]: 10200 nM
- anti-SARS-CoV-2 activity (in words), concentrations up to 100 μM [1]: inactive
- anti-SARS-CoV-2 activity (in words), concentrations up to 100 μM ([1]; listed as Metformin): did not observe an EC50
- cytotoxicity (in words), up to 100 μM ([3]; African green monkey): did not observe an EC50 or cytotoxicity
- absolute reduction in long COVID incidence compared with placebo [32]: 4.1%
- reduction of the incidence of long COVID ([32]; outpatient treatment): about 41%
